Test results from ChEMBL document CHEMBL1124625, “Flavones. 2. Synthesis and structure-activity relationship of flavodilol and its analogues, a novel class of antihypertensive agents with catecholamine depleting properties” (J Med Chem, 1989).

Assays:
Rattus norvegicus [1] = assay: Systolic blood pressure (SBP) in anesthetized spontaneously hypertensive rats (SHR) before administration of 75 mg/kg dose perorally.; type: functional; parameters: unit: mmHg; conditions: route oral
Rattus norvegicus [2] = assay: Systolic blood pressure (SBP) in anesthetized spontaneously hypertensive rats(SHR) at 7.5 hours after administration of 75 mg/kg dose perorally; NS is not statistically significant
Rattus norvegicus [3] = assay: Systolic blood pressure (SBP) in anesthetized spontaneously hypertensive rats(SHR) at 7.5 hours after administration of 30 mg/kg dose intravenously; NS is not statistically significant; type: functional, organism-based; parameters: dose 30 mg/kg
Rattus norvegicus [4] = assay: Systolic blood pressure (SBP) in anesthetized spontaneously hypertensive rats(SHR) before administration of 30 mg/kg dose intravenously; type: functional; conditions: route intravenous
Rattus norvegicus [5] = assay: Systolic blood pressure (SBP) in anesthetized spontaneously hypertensive rats(SHR) at 7.5 hours after administration of 35 mg/kg dose perorally; type: functional; conditions: route oral
Rattus norvegicus [6] = assay: Systolic blood pressure (SBP) in anesthetized spontaneously hypertensive rats(SHR) before administration of 35 mg/kg dose perorally; type: functional; parameters: unit not given here; conditions: route oral
Adrenergic receptor beta = Adrenergic receptor beta (Rattus norvegicus, UniProt P18090+P10608+P26255)
Description: Inhibition constant from beta adrenergic receptor binding assay

Cavia porcellus = organism: Cavia porcellus; assay: Inhibition of the isoproterenol response at a dose of 1 x 10e -4M in guinea pig; slight inhibition was found; type: functional, organism-based
Rattus norvegicus [7] = assay: Systolic blood pressure (SBP) in anesthetized spontaneously hypertensive rats(SHR) at 7.5 hours after administration of 75 mg/kg dose perorally; type: functional; conditions: route oral
Rattus norvegicus [8] = assay: Systolic blood pressure (SBP) in anesthetized spontaneously hypertensive rats(SHR) at 7.5 hours after administration of 75 mg/kg dose perorally; NS is not statistically significant.
Rattus norvegicus [9] = assay: Systolic blood pressure (SBP) in anesthetized spontaneously hypertensive rats(SHR) at 7.5 hours after administration of 75 mg/kg dose perorally; value not statistically significant.; type: functional; conditions: route oral
Rattus norvegicus [10] = assay: % decrease in heart norepinephrine in anesthetized spontaneously hypertensive rats(SHR) at 5 hours after administration of 150 mg/kg dose perorally; type: functional; conditions: route oral
Rattus norvegicus [11] = assay: % decrease in heart norepinephrine in anesthetized spontaneously hypertensive rats(SHR) at 5 hours after administration of 35 mg/kg dose perorally; type: functional; conditions: route oral
Rattus norvegicus [12] = assay: % decrease in heart norepinephrine in anesthetized spontaneously hypertensive rats(SHR) at 5 hours after administration of 75 mg/kg dose perorally; type: functional; conditions: route oral
Rattus norvegicus [13] = assay: % decrease in heart 5-HT in anesthetized spontaneously hypertensive rats(SHR) at 5 hours after administration of 75 mg/kg dose perorally; *value significantly different was control.; type: functional; conditions: route oral
Rattus norvegicus [14] = assay: % decrease in heart 5-HT in anesthetized spontaneously hypertensive rats(SHR) at 5 hours after administration of 150 mg/kg dose perorally; type: functional; conditions: route oral
Rattus norvegicus [15] = assay: % decrease in hypothalamus dopamine in anesthetized spontaneously hypertensive rats(SHR) at 5 hours after administration of 35 mg/kg dose perorally; type: functional; conditions: route oral
Rattus norvegicus [16] = assay: % decrease in hypothalamus dopamine in anesthetized spontaneously hypertensive rats(SHR) at 5 hours after administration of 75 mg/kg dose perorally; type: functional; conditions: route oral
Rattus norvegicus [17] = assay: % decrease in hypothalamus norepinephrine in anesthetized spontaneously hypertensive rats(SHR) at 5 hours after administration of 35 mg/kg dose perorally; type: functional; conditions: route oral
Rattus norvegicus [18] = assay: % decrease in hypothalamus norepinephrine in anesthetized spontaneously hypertensive rats(SHR) at 5 hours after administration of 75 mg/kg dose perorally; type: functional; conditions: route oral
Rattus norvegicus [19] = assay: % decrease in heart 5-HT in anesthetized spontaneously hypertensive rats(SHR) at 5 hours after administration of 35 mg/kg dose perorally; type: functional; conditions: route oral
Rattus norvegicus [20] = assay: % decrease in hypothalamus norepinephrine in anesthetized spontaneously hypertensive rats(SHR) at 5 hours after administration of 150 mg/kg dose perorally; type: functional; conditions: route oral
Rattus norvegicus [21] = assay: % decrease in hypothalamus DA in anesthetized spontaneously hypertensive rats(SHR) at 5 hours after administration of 150 mg/kg dose perorally; conditions: route oral
Rattus norvegicus [22] = assay: % decrease in systolic blood pressure (SBP) in anesthetized spontaneously hypertensive rats(SHR) after administration of 150 mg/kg dose perorally; conditions: route oral
Rattus norvegicus [23] = assay: % decrease in adrenal epinephrine in anesthetized spontaneously hypertensive rats(SHR) at 24 hours after administration of 150 mg/kg dose perorally; type: functional; conditions: route oral
Rattus norvegicus [24] = assay: % decrease in heart norepinephrine in anesthetized spontaneously hypertensive rats(SHR) at 24 hours after administration of 150 mg/kg dose perorally; type: functional; conditions: route oral
Rattus norvegicus [25] = assay: % decrease in brain norepinephrine in anesthetized spontaneously hypertensive rats(SHR) at 24 hours after administration of 150 mg/kg dose perorally; conditions: route oral
Rattus norvegicus [26] = assay: Systolic blood pressure (SBP) in anesthetized spontaneously hypertensive rats(SHR) at 7.5 hours after administration of 35 mg/kg dose perorally; NS is not statistically significant

`O=c1cc(-c2ccccc2)oc2cc(OCC(O)CNC3CCS(=O)(=O)C3)ccc12` (stereo not drawn) was tested, and the Systolic blood pressure (Rattus norvegicus [1]) was 196 and the “Decrease in Systolic blood pressure” value (Rattus norvegicus [2]) was “Not significant”.
In the case of `O=c1cc(-c2ccccc2)oc2cc(OCC(O)CNCC(O)COc3ccccc3)ccc12` (stereo not drawn), the Systolic blood pressure (Rattus norvegicus [1]) is reported as 198 and the “Decrease in Systolic blood pressure” value (Rattus norvegicus [2]) is reported as “Not significant”.
`CCCNCC(O)COc1cccc2oc(-c3ccccc3)cc(=O)c12` (stereo not drawn) was tested, and the “Decrease in Systolic blood pressure” value (Rattus norvegicus [3]) was “Not significant” and the Systolic blood pressure (Rattus norvegicus [4]) was 157.
`CCNCC(O)COc1ccc2c(=O)cc(-c3ccccc3)oc2c1` (stereo not drawn) was tested, and the “Decrease in Systolic blood pressure” value (Rattus norvegicus [5]) was 16%, the Systolic blood pressure (Rattus norvegicus [6]) was 186 and the Ki (Adrenergic receptor beta) was 7.5 µM.
For `CC(C)NCC(O)COc1ccc2c(=O)cc(-c3ccccc3Cl)oc2c1` (stereo not drawn), the “Decrease in Systolic blood pressure” value (Rattus norvegicus [5]) was 18% and the Systolic blood pressure (Rattus norvegicus [6]) was 192.
`CC(C)NCC(O)COc1ccc2oc(-c3ccccc3)cc(=O)c2c1` (stereo not drawn) was tested, and the Activity (Cavia porcellus) was “Weak activity”, the “Decrease in Systolic blood pressure” value (Rattus norvegicus [7]) was 12% and the Systolic blood pressure (Rattus norvegicus [1]) was 199. For the same compound, the Ki (Adrenergic receptor beta) was 2.2 µM.
`O=c1cc(-c2ccccc2)oc2cc(OCC3CO3)ccc12` (stereo not drawn) was tested, and the Systolic blood pressure (Rattus norvegicus [1]) was 120.
In the case of `CC(C)NCCCOc1ccc2c(=O)cc(-c3ccccc3)oc2c1`, the Systolic blood pressure (Rattus norvegicus [1]) is reported as 204 and the “Decrease in Systolic blood pressure” value (Rattus norvegicus [2]) is reported as “Not significant”.
For `CC(C)N(Cc1ccccc1)CC(O)COc1ccc2c(=O)cc(-c3ccccc3)oc2c1` (stereo not drawn), the Systolic blood pressure (Rattus norvegicus [1]) was 200 and the “Decrease in Systolic blood pressure” value (Rattus norvegicus [8]) was “Not significant”.
For `CC(C)NCC(O)COc1ccc2c(=O)cc(-c3ccc(Cl)cc3)oc2c1` (stereo not drawn), the “Decrease in Systolic blood pressure” value (Rattus norvegicus [5]) was 19% and the Systolic blood pressure (Rattus norvegicus [6]) was 192.
With `COc1ccc(-c2cc(=O)c3ccc(OCC(O)CNC(C)C)cc3o2)cc1` (stereo not drawn) the “Decrease in Systolic blood pressure” value (Rattus norvegicus [9]) was 10% and the Systolic blood pressure (Rattus norvegicus [1]) was 198.
For `CCCCNCC(O)COc1ccc2c(=O)cc(-c3ccccc3)oc2c1` (stereo not drawn), the “Decrease in Systolic blood pressure” value (Rattus norvegicus [5]) was 26% and the Systolic blood pressure (Rattus norvegicus [6]) was 202.
`COc1c(-c2ccccc2)oc2cc(OCC(O)CNC(C)C)ccc2c1=O` (stereo not drawn) gave a Decrease (Rattus norvegicus [10]) of 70%, a Decrease (Rattus norvegicus [11]) of 55% and a Decrease (Rattus norvegicus [12]) of 61%. For the same compound, the Decrease (Rattus norvegicus [13]) was 29%, the Decrease (Rattus norvegicus [14]) was 37% and the Decrease (Rattus norvegicus [15]) was 29%. It also gave a Decrease (Rattus norvegicus [16]) of 26%, a Decrease (Rattus norvegicus [17]) of 12% and a Decrease (Rattus norvegicus [18]) of 16%. For the same compound, the Decrease (Rattus norvegicus [19]) was 7%, the Decrease (Rattus norvegicus [20]) was 28% and the “% decrease hypothalamus DA” value (Rattus norvegicus [21]) was 37%. The % decrease SBP (Rattus norvegicus [22]) was 16% and the “Decrease in Systolic blood pressure” value (Rattus norvegicus [2]) was “Not significant”.
Work on `CC(C)NCC(O)COc1ccc2c(=O)c(-c3ccccc3)coc2c1` (stereo not drawn) yielded a Decrease (Rattus norvegicus [23]) of 100%, a Decrease (Rattus norvegicus [24]) of 100% and a % decrease SBP (Rattus norvegicus [22]) of 34%. For the same compound, the Decrease (Rattus norvegicus [25]) was 37%.
`CNCC(O)COc1ccc2c(=O)cc(-c3ccccc3)oc2c1` (stereo not drawn) was tested, and the Systolic blood pressure (Rattus norvegicus [6]) was 190 and the “Decrease in Systolic blood pressure” value (Rattus norvegicus [26]) was “Not significant”.
With `CC(C)NCC(O)COc1ccc2c(c1)OC(c1ccccc1)CC2=O` (stereo not drawn) the Systolic blood pressure (Rattus norvegicus [1]) was 198 and the “Decrease in Systolic blood pressure” value (Rattus norvegicus [2]) was “Not significant”.
`O=c1cc(-c2ccccc2)oc2cc(O)ccc12` [7-HYDROXYFLAVONE] gave a Systolic blood pressure (Rattus norvegicus [1]) of 217.
`CC(C)NCC(O)COc1cccc2c(=O)cc(-c3ccccc3)oc12` (stereo not drawn) showed a Systolic blood pressure (Rattus norvegicus [1]) of 209 and a Ki (Adrenergic receptor beta) of 0.0075 µM.
`CC(C)NCC(O)COc1ccc2c(=O)cc(-c3cccc(Cl)c3)oc2c1` (stereo not drawn) was tested, and the Systolic blood pressure (Rattus norvegicus [1]) was 200 and the “Decrease in Systolic blood pressure” value (Rattus norvegicus [8]) was “Not significant”.
